# ChEMBL document CHEMBL3045835, “Comparative study of conventional and microwave-assisted synthesis of some Schiff bases and their potential as antimicrobial agents” (2012)
# Assays:
# Format in all cases: functional
# Pseudomonas fluorescens [1] = assay: Antibacterial activity against Pseudomonas fluorescens MTCC 2421 at 500 ug/ml after 18 hr by cup-plate method; details: MTCC 2421, 18 h, read-out: DIZ
# Pseudomonas fluorescens [2] = assay: Antibacterial activity against Pseudomonas fluorescens MTCC 2421 at 200 ug/ml after 18 hr by cup-plate method; details: MTCC 2421, 18 h, read-out: DIZ
# Penicillium chrysogenum [3] = assay: Antifungal activity against Penicillium chrysogenum MTCC 161 at 1000 ug/ml after 18 hr by cup-plate method; details: MTCC 161, 18 h, read-out: DIZ
# Bacillus pumilus [4] = assay: Antibacterial activity against Bacillus pumilus MTCC 1456 at 200 ug/ml after 18 hr by cup-plate method; details: MTCC 1456, 18 h, read-out: DIZ
# Pseudomonas aeruginosa [5] = assay: Antibacterial activity against Pseudomonas aeruginosa MTCC 424 at 1000 ug/ml after 18 hr by cup-plate method; details: MTCC 424, 18 h, read-out: DIZ
# Aspergillus niger [6] = assay: Antifungal activity against Aspergillus niger MTCC 2546 at 200 ug/ml after 18 hr by cup-plate method; details: MTCC 2546, 18 h, read-out: DIZ
# Aspergillus niger [7] = assay: Antifungal activity against Aspergillus niger MTCC 2546 at 100 ug/ml after 18 hr by cup-plate method; details: MTCC 2546, 18 h, read-out: DIZ
# Escherichia coli [8] = assay: Antibacterial activity against Escherichia coli MTCC 1573 at 1000 ug/ml after 18 hr by cup-plate method; details: MTCC 1573, 18 h, read-out: DIZ
# Penicillium chrysogenum [9] = assay: Antifungal activity against Penicillium chrysogenum MTCC 161 after 24 hr by broth dilution method; details: MTCC 161, 24 h
# Staphylococcus aureus [10] = assay: Antibacterial activity against Staphylococcus aureus MTCC 1430 at 100 ug/ml after 18 hr by cup-plate method; details: MTCC 1430, 18 h, read-out: DIZ
# Bacillus pumilus [11] = assay: Antibacterial activity against Bacillus pumilus MTCC 1456 after 24 hr by broth dilution method; details: MTCC 1456, 24 h
# Micrococcus luteus [12] = assay: Antibacterial activity against Micrococcus luteus MTCC 1538 at 100 ug/ml after 18 hr by cup-plate method; details: MTCC 1538, 18 h, read-out: DIZ
# Micrococcus luteus [13] = assay: Antibacterial activity against Micrococcus luteus MTCC 1538 at 200 ug/ml after 18 hr by cup-plate method; details: MTCC 1538, 18 h, read-out: DIZ
# Escherichia coli [14] = assay: Antibacterial activity against Escherichia coli MTCC 1573 at 500 ug/ml after 18 hr by cup-plate method; details: MTCC 1573, 18 h, read-out: DIZ
# Micrococcus luteus [15] = assay: Antibacterial activity against Micrococcus luteus MTCC 1538 at 1500 ug/ml after 18 hr by cup-plate method; details: MTCC 1538, 18 h, read-out: DIZ
# Staphylococcus aureus [16] = assay: Antibacterial activity against Staphylococcus aureus MTCC 1430 at 1000 ug/ml after 18 hr by cup-plate method; details: MTCC 1430, 18 h, read-out: DIZ
# Staphylococcus aureus [17] = assay: Antibacterial activity against Staphylococcus aureus MTCC 1430 at 1500 ug/ml after 18 hr by cup-plate method; details: MTCC 1430, 18 h, read-out: DIZ
# Penicillium chrysogenum [18] = assay: Antifungal activity against Penicillium chrysogenum MTCC 161 at 200 ug/ml after 18 hr by cup-plate method; details: MTCC 161, 18 h, read-out: DIZ
# Pseudomonas fluorescens [19] = assay: Antibacterial activity against Pseudomonas fluorescens MTCC 2421 after 24 hr by broth dilution method; details: MTCC 2421, 24 h
# Bacillus pumilus [20] = assay: Antibacterial activity against Bacillus pumilus MTCC 1456 at 1500 ug/ml after 18 hr by cup-plate method; details: MTCC 1456, 18 h, read-out: DIZ
# Pseudomonas aeruginosa [21] = assay: Antibacterial activity against Pseudomonas aeruginosa MTCC 424 at 500 ug/ml after 18 hr by cup-plate method; details: MTCC 424, 18 h, read-out: DIZ
# Penicillium chrysogenum [22] = assay: Antifungal activity against Penicillium chrysogenum MTCC 161 at 500 ug/ml after 18 hr by cup-plate method; details: MTCC 161, 18 h, read-out: DIZ
# Escherichia coli [23] = assay: Antibacterial activity against Escherichia coli MTCC 1573 after 24 hr by broth dilution method; details: MTCC 1573, 24 h
# Staphylococcus aureus [24] = assay: Antibacterial activity against Staphylococcus aureus MTCC 1430 after 24 hr by broth dilution method; details: MTCC 1430, 24 h
# Bacillus subtilis [25] = assay: Antibacterial activity against Bacillus subtilis MTCC 441 after 24 hr by broth dilution method; details: MTCC 441, 24 h
# Staphylococcus aureus [26] = assay: Antibacterial activity against Staphylococcus aureus MTCC 1430 at 500 ug/ml after 18 hr by cup-plate method; details: MTCC 1430, 18 h, read-out: DIZ
# Pseudomonas fluorescens [27] = assay: Antibacterial activity against Pseudomonas fluorescens MTCC 2421 at 100 ug/ml after 18 hr by cup-plate method; details: MTCC 2421, 18 h, read-out: DIZ
# Micrococcus luteus [28] = assay: Antibacterial activity against Micrococcus luteus MTCC 1538 after 24 hr by broth dilution method; details: MTCC 1538, 24 h
# Pseudomonas aeruginosa [29] = assay: Antibacterial activity against Pseudomonas aeruginosa MTCC 424 after 24 hr by broth dilution method; details: MTCC 424, 24 h
# Pseudomonas fluorescens [30] = assay: Antibacterial activity against Pseudomonas fluorescens MTCC 2421 at 1500 ug/ml after 18 hr by cup-plate method; details: MTCC 2421, 18 h, read-out: DIZ
# Aspergillus niger [31] = assay: Antifungal activity against Aspergillus niger MTCC 2546 at 1500 ug/ml after 18 hr by cup-plate method; details: MTCC 2546, 18 h, read-out: DIZ
# Micrococcus luteus [32] = assay: Antibacterial activity against Micrococcus luteus MTCC 1538 at 1000 ug/ml after 18 hr by cup-plate method; details: MTCC 1538, 18 h, read-out: DIZ
# Aspergillus niger [33] = assay: Antifungal activity against Aspergillus niger MTCC 2546 at 500 ug/ml after 18 hr by cup-plate method; details: MTCC 2546, 18 h, read-out: DIZ
# Bacillus subtilis [34] = assay: Antibacterial activity against Bacillus subtilis MTCC 441 at 200 ug/ml after 18 hr by cup plate method; details: MTCC 441, 18 h, read-out: DIZ
# Escherichia coli [35] = assay: Antibacterial activity against Escherichia coli MTCC 1573 at 200 ug/ml after 18 hr by cup-plate method; details: MTCC 1573, 18 h, read-out: DIZ
# Staphylococcus aureus [36] = assay: Antibacterial activity against Staphylococcus aureus MTCC 1430 at 200 ug/ml after 18 hr by cup-plate method; details: MTCC 1430, 18 h, read-out: DIZ
# Bacillus pumilus [37] = assay: Antibacterial activity against Bacillus pumilus MTCC 1456 at 100 ug/ml after 18 hr by cup-plate method; details: MTCC 1456, 18 h, read-out: DIZ
# Pseudomonas aeruginosa [38] = assay: Antibacterial activity against Pseudomonas aeruginosa MTCC 424 at 100 ug/ml after 18 hr by cup-plate method; details: MTCC 424, 18 h, read-out: DIZ
# Pseudomonas fluorescens [39] = assay: Antibacterial activity against Pseudomonas fluorescens MTCC 2421 at 1000 ug/ml after 18 hr by cup-plate method; details: MTCC 2421, 18 h, read-out: DIZ
# Escherichia coli [40] = assay: Antibacterial activity against Escherichia coli MTCC 1573 at 100 ug/ml after 18 hr by cup-plate method; details: MTCC 1573, 18 h, read-out: DIZ
# Bacillus pumilus [41] = assay: Antibacterial activity against Bacillus pumilus MTCC 1456 at 1000 ug/ml after 18 hr by cup-plate method; details: MTCC 1456, 18 h, read-out: DIZ
# Pseudomonas aeruginosa [42] = assay: Antibacterial activity against Pseudomonas aeruginosa MTCC 424 at 200 ug/ml after 18 hr by cup-plate method; details: MTCC 424, 18 h, read-out: DIZ
# Pseudomonas aeruginosa [43] = assay: Antibacterial activity against Pseudomonas aeruginosa MTCC 424 at 1500 ug/ml after 18 hr by cup-plate method; details: MTCC 424, 18 h, read-out: DIZ
# Bacillus pumilus [44] = assay: Antibacterial activity against Bacillus pumilus MTCC 1456 at 500 ug/ml after 18 hr by cup-plate method; details: MTCC 1456, 18 h, read-out: DIZ
# Penicillium chrysogenum [45] = assay: Antifungal activity against Penicillium chrysogenum MTCC 161 at 100 ug/ml after 18 hr by cup-plate method; details: MTCC 161, 18 h, read-out: DIZ
# Aspergillus niger [46] = assay: Antifungal activity against Aspergillus niger MTCC 2546 after 24 hr by broth dilution method; details: MTCC 2546, 24 h
# Bacillus subtilis [47] = assay: Antibacterial activity against Bacillus subtilis MTCC 441 at 1500 ug/ml after 18 hr by cup plate method; details: MTCC 441, 18 h, read-out: DIZ
# Bacillus subtilis [48] = assay: Antibacterial activity against Bacillus subtilis MTCC 441 at 100 ug/ml after 18 hr by cup plate method; details: MTCC 441, 18 h, read-out: DIZ
# Escherichia coli [49] = assay: Antibacterial activity against Escherichia coli MTCC 1573 at 1500 ug/ml after 18 hr by cup-plate method; details: MTCC 1573, 18 h, read-out: DIZ
# Micrococcus luteus [50] = assay: Antibacterial activity against Micrococcus luteus MTCC 1538 at 500 ug/ml after 18 hr by cup-plate method; details: MTCC 1538, 18 h, read-out: DIZ
# Bacillus subtilis [51] = assay: Antibacterial activity against Bacillus subtilis MTCC 441 at 1000 ug/ml after 18 hr by cup plate method; details: MTCC 441, 18 h, read-out: DIZ
# Bacillus subtilis [52] = assay: Antibacterial activity against Bacillus subtilis MTCC 441 at 500 ug/ml after 18 hr by cup plate method; details: MTCC 441, 18 h, read-out: DIZ
# Aspergillus niger [53] = assay: Antifungal activity against Aspergillus niger MTCC 2546 at 1000 ug/ml after 18 hr by cup-plate method; details: MTCC 2546, 18 h, read-out: DIZ
# Penicillium chrysogenum [54] = assay: Antifungal activity against Penicillium chrysogenum MTCC 161 at 1500 ug/ml after 18 hr by cup-plate method; details: MTCC 161, 18 h, read-out: DIZ
compound,measurement,setting,value
Cc1cc(/N=C/c2cccc3ccccc23)no1,zone of inhibition at 500 µg/mL,Pseudomonas fluorescens [1],15 mm
same,zone of inhibition at 200 µg/mL,Pseudomonas fluorescens [2],13 mm
same,zone of inhibition at 1000 µg/mL,Penicillium chrysogenum [3],19 mm
same,zone of inhibition at 200 µg/mL,Bacillus pumilus [4],15 mm
same,zone of inhibition at 1000 µg/mL,Pseudomonas aeruginosa [5],18 mm
same,zone of inhibition at 200 µg/mL,Aspergillus niger [6],18 mm
same,zone of inhibition at 100 µg/mL,Aspergillus niger [7],13 mm
same,zone of inhibition at 1000 µg/mL,Escherichia coli [8],15 mm
same,MIC,Penicillium chrysogenum [9],200 µg/mL
same,zone of inhibition at 100 µg/mL,Staphylococcus aureus [10],13 mm
same,MIC,Bacillus pumilus [11],300 µg/mL
same,zone of inhibition at 100 µg/mL,Micrococcus luteus [12],16 mm
same,zone of inhibition at 200 µg/mL,Micrococcus luteus [13],18 mm
same,zone of inhibition at 500 µg/mL,Escherichia coli [14],14 mm
same,zone of inhibition at 1500 µg/mL,Micrococcus luteus [15],24 mm
same,zone of inhibition at 1000 µg/mL,Staphylococcus aureus [16],16 mm
same,zone of inhibition at 1500 µg/mL,Staphylococcus aureus [17],20 mm
same,zone of inhibition at 200 µg/mL,Penicillium chrysogenum [18],16 mm
same,MIC,Pseudomonas fluorescens [19],300 µg/mL
same,zone of inhibition at 1500 µg/mL,Bacillus pumilus [20],18 mm
same,zone of inhibition at 500 µg/mL,Pseudomonas aeruginosa [21],17 mm
same,zone of inhibition at 500 µg/mL,Penicillium chrysogenum [22],18 mm
same,MIC,Escherichia coli [23],300 µg/mL
same,MIC,Staphylococcus aureus [24],400 µg/mL
same,MIC,Bacillus subtilis [25],300 µg/mL
same,zone of inhibition at 500 µg/mL,Staphylococcus aureus [26],15 mm
same,zone of inhibition at 100 µg/mL,Pseudomonas fluorescens [27],11 mm
same,MIC,Micrococcus luteus [28],200 µg/mL
same,MIC,Pseudomonas aeruginosa [29],300 µg/mL
same,zone of inhibition at 1500 µg/mL,Pseudomonas fluorescens [30],19 mm
same,zone of inhibition at 1500 µg/mL,Aspergillus niger [31],21 mm
same,zone of inhibition at 1000 µg/mL,Micrococcus luteus [32],22 mm
same,zone of inhibition at 500 µg/mL,Aspergillus niger [33],19 mm
same,zone of inhibition at 200 µg/mL,Bacillus subtilis [34],16 mm
same,zone of inhibition at 200 µg/mL,Escherichia coli [35],13 mm
same,zone of inhibition at 200 µg/mL,Staphylococcus aureus [36],14 mm
same,zone of inhibition at 100 µg/mL,Bacillus pumilus [37],13 mm
same,zone of inhibition at 100 µg/mL,Pseudomonas aeruginosa [38],14 mm
same,zone of inhibition at 1000 µg/mL,Pseudomonas fluorescens [39],18 mm
same,zone of inhibition at 100 µg/mL,Escherichia coli [40],12 mm
same,zone of inhibition at 1000 µg/mL,Bacillus pumilus [41],17 mm
same,zone of inhibition at 200 µg/mL,Pseudomonas aeruginosa [42],16 mm
same,zone of inhibition at 1500 µg/mL,Pseudomonas aeruginosa [43],20 mm
same,zone of inhibition at 500 µg/mL,Bacillus pumilus [44],16 mm
same,zone of inhibition at 100 µg/mL,Penicillium chrysogenum [45],15 mm
same,MIC,Aspergillus niger [46],300 µg/mL
same,zone of inhibition at 1500 µg/mL,Bacillus subtilis [47],20 mm
same,zone of inhibition at 100 µg/mL,Bacillus subtilis [48],13 mm
same,zone of inhibition at 1500 µg/mL,Escherichia coli [49],17 mm
same,zone of inhibition at 500 µg/mL,Micrococcus luteus [50],20 mm
same,zone of inhibition at 1000 µg/mL,Bacillus subtilis [51],19 mm
same,zone of inhibition at 500 µg/mL,Bacillus subtilis [52],17 mm
same,zone of inhibition at 1000 µg/mL,Aspergillus niger [53],20 mm
same,zone of inhibition at 1500 µg/mL,Penicillium chrysogenum [54],20 mm
